Series [1] concerns Plasmid DNA. Put plainly: Non-specific plasmid DNA cleavage under oxidizing conditions. It counts as biochemical. The settings on record: for cleavage of DNA without metalloligand: no metalloligand. The method, then:
Plasmid DNA at a concentration of 50 μM, bp was added to a reaction solution containing 20 mM HEPES, pH 7.3, and the metalloligands of Examples 1-4 and the reducing agent ascorbic acid. […] The metalloligands of examples 1 to 4 also degraded plasmid DNA completely in the presence of 10 μM H2O2.
However, superoxide dismutase (SOD) and NaN3 inhibited oxidative DNA cleavage mediated by Cu(kanamycin A). Accordingly, it is believed that activated oxygen species (such as O2^− or ^1O2) are involved in plasmid cleavage when the metalloligand and the substrate DNA are reacted under oxidizing conditions.

Series [2] concerns R23 RNA. The settings on record: cited from earlier work.
In series [3] the test system is Plasmid DNA. Put plainly: Non-specific plasmid DNA cleavage (hydrolytic conditions), gel electrophoresis. It counts as biochemical. The method, then: The appearance of open circular DNA (form II) and the disappearance of supercoiled DNA (form I) was monitored via gel electrophoresis.
Metalloligands comprising the transition metal ions Fe, Mn, Co, and Ni were formed by mixing a 10 μM solution of the salts FeSO4, MnCl2, CoSO4, and NiCi2, and an equivalent volume of 10 μM kanamycin A for 12 h at 35 ° C. Complex formation was monitored by thin layer chromatography, using PrOH:Me2CO:NH4OAc (20%(aq)) (1:1:5:0.025) on silica gel plates. […]

Series [4] is described as follows: Stability of the metalloligands in aqueous solution. Particulars: purified complex.
Series [5] concerns R23 RNA. Put plainly: Cleaving R23 RNA at select sites under oxidizing conditions. It counts as biochemical. The method, then:
Uniformly labeled R23 RNA was incubated at 37° C. for 1 hr with various concentrations of Cu(kanamycin A) in the presence and absence of the co-reactants H2O2 and ascorbate. Cleavage products were separated on a denaturing polyacrylamide gel. […] These sites are depicted in FIG. 1. […] RNA cleavage of 30% was observed by FPLC with 1 nM Cu(kanamycin A) after incubation at 37° C. for 1 hour. Cleavage efficiencies of approximately 25% were obtained for solutions containing 50 pM Cu(kanamycin A) and 100 μM ascorbate or 1 μM H2O2 following incubation for 2 h at 37° C. Thus, Cu(kanamycin A) is able to selectively cleave RNA at physiological pH and under mild oxidizing conditions.

Series [6] deals with R23 RNA. Put plainly: Specific cleavage of 23-mer R23 RNA, FPLC analysis. The format is biochemical. The method, then:
The metalloligand is added to a sample containing substrate RNA with the recognized binding motif. Preferably, the RNA is in an aqueous solution having a pH of from about 7 to about 8. Preferably, the reaction is conducted at a temperatures ranging from 4° C. to about 40° C.

For series [7], the system named is poly(C). Put plainly: Cleavage of poly(C). Particulars: similar reaction conditions as R23.
For series [8], the system named is linear oligo (A12-18). In words: Cleavage of linear oligo (A12-18). Particulars: similar reaction conditions as R23.

Consider `[Cu+2]` [Cu^2+(aq), reference compound], for which the “cleavage of DNA without metalloligand” value was “did not occur” in series [1] (Cu2+ and ascorbate); “did not occur” in series [1] (Cu2+(aq) alone).
With `NC[C@@H]1O[C@H](O[C@H]2[C@@H](O)[C@H](O[C@@H]3[C@@H](O)[C@H](N)C[C@H](N)[C@H]3O[C@H]3O[C@H](CN)[C@@H](O)[C@H](O)[C@H]3N)O[C@@H]2CO)[C@H](N)[C@@H](O)[C@@H]1O` [neomycin B], in series [2], the “binding affinity to R23 RNA” value is recorded as “high binding affinity”.
As to Cu(kanamycin A), in series [3] (500 nM complex, 5 minutes, plasmid DNA 50 μM bp, 20 mM HEPES pH 7.3), the “nicking of plasmid DNA” value was “At least some DNA was nicked”. Also, in series [3] (1 μM complex, plasmid DNA 50 μM bp, 20 mM HEPES pH 7.3), the “time to complete degradation of plasmid DNA” value is ≤ 1 h. Moreover, in series [3] (addition of SOD, NaN3, DMSO, EtOH), the “effect of quenchers on DNA cleavage” value is given as “not inhibited”. In addition, in series [3] (addition of excess metal-free aminoglycoside), the “effect of excess metal-free aminoglycoside on DNA cleavage” value is on record as “inhibited cleavage”. The “DNA cleavage under anaerobic conditions” value in series [3] (argon atmosphere) is “not inhibited”. In addition, the “stability in aqueous solution” value in series [4] is recorded as “stable in aqueous solution for more than one day”. The cleavage efficiency result in series [5] (50 pM complex, 100 μM ascorbate or 1 μM H2O2, 2 h, 37 °C) was “approximately 25%”. This compound also came in with an RNA cleavage in series [5] (1 nM complex, 37 °C, 1 hour, FPLC) of 30%. Also, the “sites of cleavage in R23 RNA” value in series [5] (37 °C, 1 hr, presence and absence of H2O2 and ascorbate, denaturing polyacrylamide gel) is “one in the loop region at G^15 and the other in the stem region at C^4”. The “degradation of target RNA” value in series [5] (nanomolar complex, 100 μM ascorbate or 1 μM H2O2) is on record as “extremely efficient degradation”. Besides, the “cleavage of structured 23 mer RNA” value in series [6] (10 nmol complex, pH 7.3, 37 °C, 90 minutes) is given as “Good results”. For the same compound, the “hydrolysis of R23 RNA” value in series [6] (20 nM complex, 23-mer RNA 30 μM base pair, 90 minutes, 20 mM HEPES pH 7.3, FPLC) was determined as 54%. Also, the “hydrolysis efficiency of R23 RNA” value in series [6] (100 nM complex instead of 20 nM) is “Hydrolysis efficiency increased”. In addition, the “cleavage of poly(C)” value in series [7] is given as “no cleavage”. The “conversion of supercoiled DNA to linear form” value in series [1] (5 nM complex, 10 μM ascorbate, supercoiled DNA 51 μM base pair) was “Complete conversion”. Further, the “effect of hydroxy radical quenchers on oxidative DNA cleavage” value in series [1] (DMSO and EtOH) is recorded as “did not inhibit”. Besides, the “effect of SOD and NaN3 on oxidative DNA cleavage” value in series [1] (superoxide dismutase (SOD) and NaN3) is recorded as “inhibited”. The “cleavage of linear oligo (A12-18)” value in series [8] was “no cleavage”.
Regarding Cu(kanamycin A)2, the “concentration at which plasmid DNA was cleaved (as low as)” value in series [3] is given as 100 nM.
With Cu(neamine), the “time to appearance of open circular DNA (form II)” value in series [3] (0.1 μmolar complex, plasmid DNA 50 μM bp, 10 mM HEPES pH 7.3, 37 °C) is on record as “within less than one hour”. Moreover, the “stability in aqueous solution” value in series [4] is given as “stable in aqueous solution for more than one day”.
As to Cu(neomycin B), the “concentration at which plasmid DNA was cleaved (as low as)” value in series [3] worked out at 100 nM.

The values are drawn from patent US6403777B1, “Metalloligands for cleaving nucleic acids” (The Ohio State University Research Foundation, priority 1999, dated 2002).
